From PubChem BioAssay AID2252 (Southern Research Specialized Biocontainment Screening …, 2010)
“And” between values parts separate entries of the source, which are not always exact repeats. Equal entries are not always repeated.

System: THP-1 viability, CellTiter-Glo luminescence, 72 h
Assay: PubChem AID 2252

| SMILES | EC50 |
| --- | --- |
| NC1=NC[C@H](Cc2ccc(O)cc2)N1CCC12CC3CC(CC(C3)C1)C2 | 13.2 µM |
| COc1ccc(Nc2c3c(nc4ccc(C)cc24)CCC3)cc1 | 19 µM |
| O=C1c2ccc3c4c(ccc(c24)C(=O)N1c1cccc(O)c1)C(=O)N(c1cccc(O)c1)C3=O | 2.74 µM |
| Cc1cc2nc(C3CCN(CC4COc5ccccc5O4)CC3)[nH]c2cc1C (configuration not stated) | 26.8 µM |
| COc1ccc(CNCCC(c2ccccc2)c2ccc3c(c2)OCO3)cc1 (configuration not stated) | 13.4 µM |
| Cc1ccc(-n2c(-c3ccc(Br)cc3)c[n+]3c2CCc2ccc4cccnc4c2-3)cc1 | 0.76 µM |
| CC[C@@H](C)[C@H](CNC)NC[C@@H](Cc1cccc2ccccc12)NCCc1cccc(C(F)(F)F)c1 | 5.86 µM |
| O/N=C/C1=C(Cl)c2ccccc2CC1 | < 0.1 µM |
| Fc1ccc(Nc2ccnc(Nc3ccc(F)cc3)n2)cc1 | 11.7 µM |
| c1cnc2c(c1)ccc1cccnc12 | 3.14 µM and 2.97 µM |
| CN(C)CCOCCOc1ccc(Cl)c2ccccc12 | 48.3 µM |
| COC(=O)C1C(O)C(C)C(O)C(C)(O)/C=C\C=C(/C)C(=O)Nc2c(C)c(OC(C)=O)c3c(c2O)C(=O)C(C)=C2OCOC(=C23)/C(C)=C/C(C)(O)C(O)C(C)C1O (configuration not stated) | < 0.1 µM |
| COc1ccc(C(=O)CSc2nnc(-c3cnccn3)n2Cc2ccco2)cc1 | < 0.1 µM |
| CC1CCN(CCCNC(=O)c2ccc3c(=O)n(Cc4ccc(Cl)cc4)c(=S)[nH]c3c2)CC1 | 16.8 µM |
| NC(N)=N/N=C/c1ccc(OCc2ccc(Cl)cc2)cc1 | 5.57 µM |
| COc1cccc(Nc2cc(C)nc3ccccc23)c1 | 30.5 µM |
| OC(CNCC1CCCO1)Cn1c2ccc(Cl)cc2c2cc(Cl)ccc21 (configuration not stated) | 12.9 µM |
| Cc1cc(OCCCCCN2CCCC2)ccc1Cl | 48.7 µM |
| Oc1c(I)cc(Cl)c2cccnc12 | 14.7 µM |

| SMILES | EC50 |
| --- | --- |
| COc1ccc(C(=O)NNC(=S)NC(=O)c2ccccc2)cc1 | 6.81 µM |
| O=C(NC(=S)NNC(=O)c1cnccn1)c1ccc(F)cc1 | 5.51 µM |
| CN1CCN(CCCN2c3ccccc3Sc3ccc(C(F)(F)F)cc32)CC1 | 10.3 µM |
| Cc1cccc(OCC(O)Cn2c(=N)n(CCN3CCCCC3)c3ccccc32)c1 (configuration not stated) | 16.1 µM |
| COc1ccc(/C=C/C(=O)NC(=S)NNC(=O)c2cnccn2)cc1 | 2.81 µM |
| O=C(Nc1ccc(Nc2ccncc2)cc1)c1ccc([N+](=O)[O-])cc1 | 11.9 µM |
| O=C(CC(=O)c1cc(Cl)ccc1O)c1ccccc1 | 12.3 µM |
| CCCCCNC(=O)c1cn(CC)c2cc(N3CCN(C)CC3)c(F)cc2c1=O | 19.8 µM |
| c1ccc(Nc2ccnc(Nc3ccccc3)n2)cc1 | 41.7 µM |
| Cc1cc2ncn(/N=C/c3ccc([N+](=O)[O-])o3)c2cc1C | 49.3 µM |
| Clc1c(OCCCn2ccnc2)ccc2ccccc12 | 41.1 µM |
| Nc1c(Cl)ncnc1N/N=C/c1ccccn1 | 0.36 µM |
| O[C@@H](c1cc(C(F)(F)F)nc2c(C(F)(F)F)cccc12)[C@H]1CCCCN1 | 3.98 µM |
| O=c1[nH]cc(F)c(=O)[nH]1 | 6.24 µM |
| N#CC1=C2N=C(N)c3ccccc3N2C2=C(C(=O)CCC2)C1c1cccc(Cl)c1 (configuration not stated) | 27.1 µM |
| Nc1nc(Nc2ccc(Cl)cc2)nc2ccccc12 | 6.06 µM |
| COC(=O)c1cc(CSC(=N)N)ccc1OCCC(C)C | 14.7 µM |
| Cn1cnc2cc(NC(=O)c3cccs3)ccc21 | < 0.1 µM |
| Cc1c(CCN)ccc2c1[nH]c1ccccc12 | 22.3 µM |

| SMILES | EC50 |
| --- | --- |
| Cc1nnc(N/N=C/c2ccccn2)[nH]c1=O | 1.62 µM |
| CN1C(=O)/C(=C/c2cccc(Cl)c2)Sc2ccc(C(=O)N3CCCC3)cc21 | 21.1 µM |
| COC(=O)C1=C(C(=O)OC)SC(=C2C(=S)C(C)(C)N(C(=O)C3CC3)c3ccccc32)S1 | 30.9 µM |
| COc1ccccc1N1CCN(Cc2ccc(O)c3ncccc23)CC1 | 2.61 µM |
| COc1cccc2[nH]c3c(N4CCN(Cc5ccc6c(c5)OCO6)CC4)ncnc3c12 | 42.2 µM |
| N#C/C(=N\Nc1ccc([N+](=O)[O-])cc1)C(N)=S | 29 µM |
| O=C1c2ccccc2NC(c2ccc(-c3ccc(Br)cc3)o2)N1O (configuration not stated) | 10.6 µM |
| NC1=NC[C@H](c2ccccc2)N1CCCCC1CCCCC1 | 6.36 µM |
| O=C(N/N=C\c1ccc(Cl)s1)c1cccs1 | 32.7 µM |
| O=C(N/N=C/c1ccc([N+](=O)[O-])s1)c1cccnc1 | 14.9 µM |
| CN1CCN(CC(=O)N2CCn3c4c(c5cc(C6CCCCC6)ccc53)CCCC42)CC1 (configuration not stated) | 6.66 µM |
| COc1ccc(/C=N/Nc2cc(C)nc3ccccc23)cc1 | 7.03 µM |
| COc1ccc(CNCCc2ccc(Cl)cc2)cc1OCc1ccccc1 | 24.5 µM |
| Cc1[nH]c2ccccc2c1/C=N/Nc1nc2ccccc2[nH]1 | 1.52 µM |
| OCCN1CCN(C2Cc3cc(Cl)ccc3Sc3ccc(Cl)cc32)CC1 (configuration not stated) (tested in a mixture with another compound) | 7.79 µM |
| COc1ccc2[nH]c3c(C)c4ccncc4c(C)c3c2c1 | 1.45 µM |
| CCc1c(C)n([O-])c2c([n+]1=O)CCCCC2 | < 0.1 µM |
| Cc1ccc(C(C[N+](=O)[O-])c2c(N)n(C)c(=O)n(C)c2=O)cc1 (configuration not stated) | 26.3 µM |
| CCOC(=O)c1c(-c2ccc(-c3ccccc3)cc2)csc1NC(=O)CNCCN(C)C | 7.38 µM |
